Publication PMC11345841, “Exploring 2-Sulfonylpyrimidine Warheads as Acrylamide Surrogates for Targeted Covalent Inhibition: A BTK Story” (Journal of Medicinal Chemistry, 2024)
Like-named read-outs stand apart in the source and are kept apart here.

Columns and labels:
Assay in all cases: KINOMEscan ScanTK
Assay type in all cases: binding
FLT3(D835H) = target: T1, FLT3(D835H) (Homo sapiens, UniProt P36888, D835H)
T1 construct: purchased Eurofins DiscoverX KINOMEscan (scanTK)
T1 sequence (P36888 27-993 D835H): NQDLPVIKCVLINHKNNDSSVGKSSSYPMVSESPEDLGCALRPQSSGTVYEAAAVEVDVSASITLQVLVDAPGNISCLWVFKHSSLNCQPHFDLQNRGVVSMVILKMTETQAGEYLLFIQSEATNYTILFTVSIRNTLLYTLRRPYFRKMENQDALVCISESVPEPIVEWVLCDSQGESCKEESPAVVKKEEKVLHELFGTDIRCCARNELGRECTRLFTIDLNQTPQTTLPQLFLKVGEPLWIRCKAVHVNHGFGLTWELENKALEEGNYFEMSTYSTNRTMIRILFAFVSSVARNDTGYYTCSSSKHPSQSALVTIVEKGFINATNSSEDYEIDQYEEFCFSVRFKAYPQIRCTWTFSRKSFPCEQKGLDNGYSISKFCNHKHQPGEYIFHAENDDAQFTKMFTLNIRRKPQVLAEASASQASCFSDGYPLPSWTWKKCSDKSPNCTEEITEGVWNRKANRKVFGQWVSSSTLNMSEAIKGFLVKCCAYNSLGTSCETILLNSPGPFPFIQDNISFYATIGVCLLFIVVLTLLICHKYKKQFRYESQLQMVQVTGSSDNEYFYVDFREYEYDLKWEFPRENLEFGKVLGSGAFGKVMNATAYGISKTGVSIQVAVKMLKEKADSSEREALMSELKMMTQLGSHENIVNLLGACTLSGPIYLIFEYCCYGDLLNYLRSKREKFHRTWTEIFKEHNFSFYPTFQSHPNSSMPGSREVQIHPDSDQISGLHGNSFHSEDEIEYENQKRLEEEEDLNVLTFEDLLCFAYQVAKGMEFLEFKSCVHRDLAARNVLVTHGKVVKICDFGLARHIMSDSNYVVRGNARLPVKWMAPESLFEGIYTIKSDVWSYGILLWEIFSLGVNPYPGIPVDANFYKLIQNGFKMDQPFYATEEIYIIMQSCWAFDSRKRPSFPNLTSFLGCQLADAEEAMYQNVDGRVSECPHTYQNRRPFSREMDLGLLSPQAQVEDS

HCK = target: T2, HCK (Homo sapiens, UniProt P08631)
T2 construct: purchased Eurofins DiscoverX KINOMEscan (scanTK)
T2 sequence (P08631 whole entry): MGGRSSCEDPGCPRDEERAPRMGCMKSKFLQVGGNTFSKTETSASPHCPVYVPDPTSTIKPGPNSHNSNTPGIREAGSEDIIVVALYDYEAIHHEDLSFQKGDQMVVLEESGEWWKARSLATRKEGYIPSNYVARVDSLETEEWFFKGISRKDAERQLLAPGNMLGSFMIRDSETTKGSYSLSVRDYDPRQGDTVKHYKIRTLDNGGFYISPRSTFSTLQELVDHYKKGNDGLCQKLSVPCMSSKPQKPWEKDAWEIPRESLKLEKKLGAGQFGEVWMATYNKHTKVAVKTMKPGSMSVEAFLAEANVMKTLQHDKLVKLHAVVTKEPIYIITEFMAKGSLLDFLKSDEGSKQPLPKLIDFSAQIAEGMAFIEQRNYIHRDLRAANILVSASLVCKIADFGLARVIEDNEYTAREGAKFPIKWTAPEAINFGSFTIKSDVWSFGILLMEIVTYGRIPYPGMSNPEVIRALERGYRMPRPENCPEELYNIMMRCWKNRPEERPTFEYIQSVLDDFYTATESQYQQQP

KIT = target: T3, KIT (Homo sapiens, UniProt P10721)
T3 construct: purchased Eurofins DiscoverX KINOMEscan (scanTK)
T3 sequence (P10721 26-976): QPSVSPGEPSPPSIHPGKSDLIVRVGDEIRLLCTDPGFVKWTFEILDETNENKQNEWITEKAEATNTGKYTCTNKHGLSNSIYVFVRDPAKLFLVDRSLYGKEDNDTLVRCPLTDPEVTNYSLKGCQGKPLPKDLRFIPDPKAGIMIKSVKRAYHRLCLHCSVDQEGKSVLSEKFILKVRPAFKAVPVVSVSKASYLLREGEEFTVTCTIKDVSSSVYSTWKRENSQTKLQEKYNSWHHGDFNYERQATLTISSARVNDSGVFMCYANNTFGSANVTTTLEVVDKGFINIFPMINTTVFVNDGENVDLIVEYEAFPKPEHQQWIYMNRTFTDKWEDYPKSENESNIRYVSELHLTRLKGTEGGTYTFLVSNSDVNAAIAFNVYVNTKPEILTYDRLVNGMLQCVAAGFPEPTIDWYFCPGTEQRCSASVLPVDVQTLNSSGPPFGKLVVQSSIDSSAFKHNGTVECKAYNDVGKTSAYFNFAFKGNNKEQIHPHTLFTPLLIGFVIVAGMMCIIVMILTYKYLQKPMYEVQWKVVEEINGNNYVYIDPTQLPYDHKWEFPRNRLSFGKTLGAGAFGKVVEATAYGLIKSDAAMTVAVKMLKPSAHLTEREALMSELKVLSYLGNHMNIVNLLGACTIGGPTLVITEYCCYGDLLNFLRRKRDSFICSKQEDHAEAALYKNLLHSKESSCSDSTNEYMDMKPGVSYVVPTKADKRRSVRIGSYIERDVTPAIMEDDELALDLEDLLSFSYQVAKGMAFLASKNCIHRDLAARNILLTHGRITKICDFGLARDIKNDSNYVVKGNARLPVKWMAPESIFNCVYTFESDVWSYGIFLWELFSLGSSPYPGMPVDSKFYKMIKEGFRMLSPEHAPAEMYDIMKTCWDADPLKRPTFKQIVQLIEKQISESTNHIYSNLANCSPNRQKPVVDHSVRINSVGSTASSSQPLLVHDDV

IGF1R = target: T4, IGF1R (Homo sapiens, UniProt P08069)
T4 construct: purchased Eurofins DiscoverX KINOMEscan (scanTK)
T4 sequence (P08069 31-1367): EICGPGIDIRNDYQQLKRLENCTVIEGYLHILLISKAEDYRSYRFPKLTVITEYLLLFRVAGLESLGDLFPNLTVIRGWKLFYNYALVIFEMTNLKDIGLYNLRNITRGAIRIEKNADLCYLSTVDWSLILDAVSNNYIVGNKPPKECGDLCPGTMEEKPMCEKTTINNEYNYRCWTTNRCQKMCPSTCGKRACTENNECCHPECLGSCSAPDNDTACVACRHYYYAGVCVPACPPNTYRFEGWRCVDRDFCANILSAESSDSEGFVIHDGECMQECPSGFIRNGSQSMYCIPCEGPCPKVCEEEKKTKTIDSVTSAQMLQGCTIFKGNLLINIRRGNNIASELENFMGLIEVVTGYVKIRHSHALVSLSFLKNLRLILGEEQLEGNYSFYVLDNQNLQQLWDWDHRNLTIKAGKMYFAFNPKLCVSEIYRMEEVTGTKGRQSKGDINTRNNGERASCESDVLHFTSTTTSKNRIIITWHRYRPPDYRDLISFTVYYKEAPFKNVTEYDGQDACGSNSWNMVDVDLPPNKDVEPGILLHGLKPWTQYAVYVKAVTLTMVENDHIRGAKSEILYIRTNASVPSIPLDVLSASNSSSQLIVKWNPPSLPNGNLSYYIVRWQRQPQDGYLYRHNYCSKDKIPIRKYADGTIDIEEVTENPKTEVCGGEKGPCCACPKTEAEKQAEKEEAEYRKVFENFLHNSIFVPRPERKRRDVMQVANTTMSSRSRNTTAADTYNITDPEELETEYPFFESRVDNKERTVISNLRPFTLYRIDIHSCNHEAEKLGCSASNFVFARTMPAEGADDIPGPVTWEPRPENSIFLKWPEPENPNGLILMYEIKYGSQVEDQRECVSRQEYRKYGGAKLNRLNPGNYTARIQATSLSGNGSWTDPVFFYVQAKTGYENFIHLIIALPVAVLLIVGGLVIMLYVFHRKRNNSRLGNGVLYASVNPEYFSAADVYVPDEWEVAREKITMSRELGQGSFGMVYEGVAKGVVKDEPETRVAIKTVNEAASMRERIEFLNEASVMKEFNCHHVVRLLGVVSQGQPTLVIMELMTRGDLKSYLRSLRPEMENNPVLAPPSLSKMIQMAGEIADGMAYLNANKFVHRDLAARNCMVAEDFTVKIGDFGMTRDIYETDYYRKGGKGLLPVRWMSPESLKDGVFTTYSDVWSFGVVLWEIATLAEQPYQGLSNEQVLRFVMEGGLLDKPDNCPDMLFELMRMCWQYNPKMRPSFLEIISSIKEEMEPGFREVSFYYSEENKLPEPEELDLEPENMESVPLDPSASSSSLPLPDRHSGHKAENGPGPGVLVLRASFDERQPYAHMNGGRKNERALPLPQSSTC

TRKA = target: T5, TRKA (Homo sapiens, UniProt P04629)
T5 construct: purchased Eurofins DiscoverX KINOMEscan (scanTK)
T5 sequence (P04629 33-796): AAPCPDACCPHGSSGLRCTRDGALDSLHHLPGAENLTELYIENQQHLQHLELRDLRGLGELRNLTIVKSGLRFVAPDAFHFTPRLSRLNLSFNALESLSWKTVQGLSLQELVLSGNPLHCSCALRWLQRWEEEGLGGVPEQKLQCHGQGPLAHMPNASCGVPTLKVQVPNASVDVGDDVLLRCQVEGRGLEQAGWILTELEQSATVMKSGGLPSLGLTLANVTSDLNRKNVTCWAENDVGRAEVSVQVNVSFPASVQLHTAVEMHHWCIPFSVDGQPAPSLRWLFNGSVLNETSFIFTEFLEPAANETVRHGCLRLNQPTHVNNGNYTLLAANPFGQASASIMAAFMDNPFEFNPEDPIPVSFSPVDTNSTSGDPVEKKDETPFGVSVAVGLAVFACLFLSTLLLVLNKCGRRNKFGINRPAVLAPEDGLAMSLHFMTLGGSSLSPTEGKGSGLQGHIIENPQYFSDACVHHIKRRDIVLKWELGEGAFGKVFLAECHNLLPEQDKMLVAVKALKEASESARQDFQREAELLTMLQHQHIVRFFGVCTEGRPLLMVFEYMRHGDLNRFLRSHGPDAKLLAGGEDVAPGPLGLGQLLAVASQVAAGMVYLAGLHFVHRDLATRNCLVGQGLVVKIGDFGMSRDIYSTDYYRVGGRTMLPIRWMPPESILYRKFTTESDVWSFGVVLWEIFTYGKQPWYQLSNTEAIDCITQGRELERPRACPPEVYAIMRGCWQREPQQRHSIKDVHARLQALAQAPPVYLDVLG

KIT(D816H) = target: T6, KIT(D816H) (Homo sapiens, UniProt P10721, D816H)
T6 construct: purchased Eurofins DiscoverX KINOMEscan (scanTK)
T6 sequence (P10721 26-976 D816H): as the sequence (P10721 26-976) above, with D791H counted along it

ITK = target: T7, ITK (Homo sapiens, UniProt Q08881); details: for difference in %Control versus compound Ib at 1 µM / remaining binding at 1 µM: ITK; for inhibition at 1 µM: ScanTK
T7 construct: purchased Eurofins DiscoverX KINOMEscan (scanTK)
T7 sequence (Q08881 1-620): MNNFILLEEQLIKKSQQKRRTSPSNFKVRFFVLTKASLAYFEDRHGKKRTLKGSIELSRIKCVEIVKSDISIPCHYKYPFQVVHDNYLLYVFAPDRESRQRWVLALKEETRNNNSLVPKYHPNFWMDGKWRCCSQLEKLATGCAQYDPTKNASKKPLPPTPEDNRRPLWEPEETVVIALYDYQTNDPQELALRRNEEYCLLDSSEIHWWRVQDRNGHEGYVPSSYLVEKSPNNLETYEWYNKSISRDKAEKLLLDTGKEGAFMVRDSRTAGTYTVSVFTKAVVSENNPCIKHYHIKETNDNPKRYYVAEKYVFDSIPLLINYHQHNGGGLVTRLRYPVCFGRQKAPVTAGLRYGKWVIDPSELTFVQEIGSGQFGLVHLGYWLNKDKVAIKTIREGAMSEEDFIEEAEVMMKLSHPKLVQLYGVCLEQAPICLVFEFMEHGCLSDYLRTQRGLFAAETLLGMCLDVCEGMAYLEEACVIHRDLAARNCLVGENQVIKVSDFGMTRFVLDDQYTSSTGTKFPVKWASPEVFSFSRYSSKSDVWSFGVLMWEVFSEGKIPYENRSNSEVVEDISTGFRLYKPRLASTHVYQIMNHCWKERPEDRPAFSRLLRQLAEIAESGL

DDR2 = target: T8, DDR2 (Homo sapiens, UniProt Q16832)
T8 construct: purchased Eurofins DiscoverX KINOMEscan (scanTK)
T8 sequence (Q16832 22-855): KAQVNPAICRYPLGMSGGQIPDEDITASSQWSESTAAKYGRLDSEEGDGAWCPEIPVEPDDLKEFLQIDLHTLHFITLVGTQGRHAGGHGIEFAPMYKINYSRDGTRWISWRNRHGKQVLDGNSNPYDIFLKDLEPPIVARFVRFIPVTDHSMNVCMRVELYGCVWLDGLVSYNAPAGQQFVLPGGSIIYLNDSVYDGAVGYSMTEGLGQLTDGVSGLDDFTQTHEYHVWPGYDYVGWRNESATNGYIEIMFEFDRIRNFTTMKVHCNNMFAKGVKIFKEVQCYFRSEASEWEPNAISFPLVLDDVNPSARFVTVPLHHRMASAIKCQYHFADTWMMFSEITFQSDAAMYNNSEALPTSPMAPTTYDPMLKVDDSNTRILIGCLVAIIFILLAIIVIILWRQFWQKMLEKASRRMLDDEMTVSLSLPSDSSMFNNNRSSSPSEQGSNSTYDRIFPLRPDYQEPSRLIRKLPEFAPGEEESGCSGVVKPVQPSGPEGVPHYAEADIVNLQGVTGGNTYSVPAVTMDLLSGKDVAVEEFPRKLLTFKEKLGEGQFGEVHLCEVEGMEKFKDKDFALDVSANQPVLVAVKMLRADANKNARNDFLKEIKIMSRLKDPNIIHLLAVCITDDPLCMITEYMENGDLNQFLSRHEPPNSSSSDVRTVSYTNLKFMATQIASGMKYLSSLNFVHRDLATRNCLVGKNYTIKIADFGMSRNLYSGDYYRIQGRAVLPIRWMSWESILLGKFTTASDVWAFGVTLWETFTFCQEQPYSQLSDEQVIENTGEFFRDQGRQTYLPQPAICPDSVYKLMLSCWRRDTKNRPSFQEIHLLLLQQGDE

[1] = @1000nM, TRKA, read-out: %Control
[2] = TRKA, read-out: %Control @1000nM
[3] = @1000nM, DDR2, read-out: %Control
[4] = DDR2, read-out: %Control @1000nM

Compound | difference in %Control from compound Ib at 1 µM (FLT3(D835H); @1000nM) [%] | remaining binding at 1 µM (FLT3(D835H); @1000nM, read-out: %Control) [%] | remaining binding at 1 µM (FLT3(D835H); read-out: %Control @1000nM) [%] | difference in %Control from compound Ib at 1 µM (HCK; @1000nM) [%] | remaining binding at 1 µM (HCK; @1000nM, read-out: %Control) [%] | remaining binding at 1 µM (HCK; read-out: %Control @1000nM) [%] | difference in %Control versus compound Ib at 1 µM (KIT; @1000nM) [%] | remaining binding at 1 µM (KIT; @1000nM, read-out: %Control) [%] | remaining binding at 1 µM (KIT; read-out: %Control @1000nM) [%] | % Control difference from reference compound Ib at 1 µM (IGF1R; @1000nM) [%] | remaining binding at 1 µM (IGF1R; @1000nM, read-out: %Control) [%] | remaining binding at 1 µM (IGF1R; read-out: %Control @1000nM) [%] | difference in % of control versus compound Ib at 1 µM (TRKA; @1000nM, TRKA) [%] | remaining binding at 1 µM (TRKA; [1]) [%] | remaining binding at 1 µM (TRKA; [2]) [%] | remaining binding at 1 µM (KIT(D816H); @1000nM, read-out: %Control) [%] | remaining binding at 1 µM (KIT(D816H); read-out: %Control @1000nM) [%] | remaining binding at 1 µM (ITK; @1000nM, read-out: %Control) [%] | remaining binding at 1 µM (ITK; read-out: %Control @1000nM) [%] | inhibition at 1 µM (ITK) [%] | other results
C=CC(=O)N1CCC[C@@H](n2nc(-c3ccc(Oc4ccccc4)cc3)c3c(N)ncnc32)C1 [Compound 1g, Ibrutinib, reference compound] |  | 36 | 36 |  | 5.2 | 5.2 |  | 41 | 41 |  | 96 | 96 |  |  |  | 100 | 100 | 15 | 15 | 85 | remaining binding at 1 µM (TRKA; read-out: %Control): 85%; remaining binding at 1 µM (TRKA; read-out: %Control @1000nM): 85%; remaining binding at 1 µM (DDR2; read-out: %Control): 97%; remaining binding at 1 µM (DDR2; read-out: %Control @1000nM): 97%
CNC(=O)c1cnc(S(C)(=O)=O)nc1N1CCCC(n2nc(-c3ccc(Oc4ccccc4)cc3)c3c(N)ncnc32)C1 (centres unmarked) [Compound 8d, 4-(3-(4-Amino-3-(4-phenoxyphenyl)-1H-pyrazolo[3,4-d]pyrimidin-1-yl)piperidin-1-yl)-N-methyl-2-(methylsulfonyl)pyrimidine-5-carboxamide] | 47 | 83 | 83 | 6.8 | 12 | 12 | 58 | 99 | 99 | 4 | 100 | 100 | -2 | 83 | 83 | 50 | 50 | 81 | 81 | 19 | difference in %Control versus compound Ib at 1 µM (ITK; @1000nM): 66%; difference in %Control from reference compound Ib at 1 µM (DDR2; @1000nM, DDR2): -15%; remaining binding at 1 µM (DDR2; [3]): 82%; remaining binding at 1 µM (DDR2; [4]): 82%

The next lines start with results.

difference in %Control from compound Ib at 1 µM (FLT3(D835H); @1000nM) [%] | remaining binding at 1 µM (FLT3(D835H); @1000nM, read-out: %Control) [%] | remaining binding at 1 µM (FLT3(D835H); read-out: %Control @1000nM) [%] | difference in %Control from compound Ib at 1 µM (HCK; @1000nM) [%] | remaining binding at 1 µM (HCK; @1000nM, read-out: %Control) [%] | remaining binding at 1 µM (HCK; read-out: %Control @1000nM) [%] | difference in %Control versus compound Ib at 1 µM (KIT; @1000nM) [%] | remaining binding at 1 µM (KIT; @1000nM, read-out: %Control) [%] | remaining binding at 1 µM (KIT; read-out: %Control @1000nM) [%] | % Control difference from reference compound Ib at 1 µM (IGF1R; @1000nM) [%] | remaining binding at 1 µM (IGF1R; @1000nM, read-out: %Control) [%] | remaining binding at 1 µM (IGF1R; read-out: %Control @1000nM) [%] | difference in % of control versus compound Ib at 1 µM (TRKA; @1000nM, TRKA) [%] | remaining binding at 1 µM (TRKA; [1]) [%] | remaining binding at 1 µM (TRKA; [2]) [%] | remaining binding at 1 µM (KIT(D816H); @1000nM, read-out: %Control) [%] | remaining binding at 1 µM (KIT(D816H); read-out: %Control @1000nM) [%] | remaining binding at 1 µM (ITK; @1000nM, read-out: %Control) [%] | remaining binding at 1 µM (ITK; read-out: %Control @1000nM) [%] | inhibition at 1 µM (ITK) [%] | Compound | other results
60 | 96 | 96 | 22.8 | 28 | 28 | 52 | 93 | 93 | -4 | 92 | 92 | 8 | 93 | 93 | 55 | 55 | 88 | 88 | 12 | CCOC(=O)c1cnc(S(C)(=O)=O)nc1N1CCC[C@@H](n2nc(-c3ccc(Oc4ccccc4)cc3)c3c(N)ncnc32)C1 [Compound 8c, Ethyl (R)-4-(3-(4-Amino-3-(4-phenoxyphenyl)-1H-pyrazolo[3,4-d]pyrimidin-1-yl)piperidin-1-yl)-2-(methylsulfonyl)pyrimidine-5-carboxylate] | difference in %Control versus compound Ib at 1 µM (ITK; @1000nM): 73%; difference in %Control from reference compound Ib at 1 µM (DDR2; @1000nM, DDR2): -22%; remaining binding at 1 µM (DDR2; [3]): 75%; remaining binding at 1 µM (DDR2; [4]): 75%
32 | 68 | 68 | 1.3 | 6.5 | 6.5 | 20 | 61 | 61 | 4 | 100 | 100 | 12 | 97 | 97 | 87 | 87 | 84 | 84 | 16 | Cc1cnc(S(C)(=O)=O)nc1N1CCCC(n2nc(-c3ccc(Oc4ccccc4)cc3)c3c(N)ncnc32)C1 (centres unmarked) [Compound 8a, 1-(1-(5-Methyl-2-(methylsulfonyl)pyrimidin-4-yl)piperidin-3-yl)-3-(4-phenoxyphenyl)-1H-pyrazolo[3,4-d]pyrimidin-4-amine] | difference in %Control versus compound Ib at 1 µM (ITK; @1000nM): 69%; difference in %Control from reference compound Ib at 1 µM (DDR2; @1000nM, DDR2): -5%; remaining binding at 1 µM (DDR2; [3]): 92%; remaining binding at 1 µM (DDR2; [4]): 92%
38 | 74 | 74 | 10.8 | 16 | 16 | 30 | 71 | 71 | -2 | 94 | 94 | 4 | 89 | 89 | 98 | 98 | 71 | 71 | 29 | COC(=O)c1cnc(S(C)(=O)=O)nc1N1CCCC(n2nc(-c3ccc(Oc4ccccc4)cc3)c3c(N)ncnc32)C1 (centres unmarked) [Compound 8b, Methyl 4-(3-(4-Amino-3-(4-phenoxyphenyl)-1H-pyrazolo[3,4-d]pyrimidin-1-yl)piperidin-1-yl)-2-(methylsulfonyl)pyrimidine-5-carboxylate] | difference in %Control versus compound Ib at 1 µM (ITK; @1000nM): 56%; difference in %Control from reference compound Ib at 1 µM (DDR2; @1000nM, DDR2): -6%; remaining binding at 1 µM (DDR2; [3]): 91%; remaining binding at 1 µM (DDR2; [4]): 91%
